# From the supplement of paper PMC4862054
# “And” between values parts separate entries of the source, which are not always exact repeats. Identical values can stand only once.
# How the values were obtained:
# Assay in all cases: normalised viability (% of control), CellTiter-Blue; higher = more viable cells (about 100 = DMSO control)
# Conditions in all cases: incubation time: 72 h
# MDA-MB-453 [1] = test system: MDA-MB-453
# Method: (§1)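 DSRT, CellTiter-Blue viability, 72 h incubation. Signal is normalised to DMSO and benzethonium chloride controls. Value is the normalised response at dose 6.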
# CAL-85-1 [2] = test system: CAL-85-1
# Method: as §1
# CAL-51 [3] = test system: CAL-51
# Method: as §1
# HDQ-P1 [4] = test system: HDQ-P1
# Method: as §1
# CAL-148 [5] = test system: CAL-148
# Method: as §1
# DU-4475 [6] = test system: DU-4475
# Method: as §1
# MDA-MB-453 [7] = test system: MDA-MB-453; remark: listed apart in the source
# Method: (§2)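 DSRT, CellTiter-Blue viability, 72 h incubation. Signal is normalised to DMSO and benzethonium chloride controls. Value is the normalised response at dose 8.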
# CAL-85-1 [8] = test system: CAL-85-1; remark: listed apart in the source
# Method: as §2
# CAL-51 [9] = test system: CAL-51; remark: listed apart in the source
# Method: as §2
# CAL-148 [10] = test system: CAL-148; remark: listed apart in the source
# Method: as §2
# DU-4475 [11] = test system: DU-4475; remark: listed apart in the source
# Method: as §2
# MDA-MB-453 [12] = test system: MDA-MB-453; remark: listed apart in the source
# Method: (§3)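 DSRT, CellTiter-Blue viability, 72 h incubation. Signal is normalised to DMSO and benzethonium chloride controls. Value is the normalised response at dose 7.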
# CAL-85-1 [13] = test system: CAL-85-1; remark: listed apart in the source
# Method: as §3
# CAL-51 [14] = test system: CAL-51; remark: listed apart in the source
# Method: as §3
# HDQ-P1 [15] = test system: HDQ-P1; remark: listed apart in the source
# Method: as §3
# CAL-148 [16] = test system: CAL-148; remark: listed apart in the source
# Method: as §3
# DU-4475 [17] = test system: DU-4475; remark: listed apart in the source
# Method: as §3
Compound,normalised viability (MDA-MB-453 [1]),normalised viability (CAL-85-1 [2]),normalised viability (CAL-51 [3]),normalised viability (HDQ-P1 [4]),normalised viability (CAL-148 [5]),normalised viability (DU-4475 [6]),also measured
Nc1ccccc1NC(=O)c1ccc(CNc2nccc(-c3cccnc3)n2)cc1 [Mocetinostat] (300 nM),69%,85.8%,92.9%,57.8%,87.5%,81.9%,
Cc1c(CN2CCN(C(=O)[C@H](C)O)CC2)sc2c(N3CCOCC3)nc(-c3cnc(N)nc3)nc12 [GDC-0980] (300 nM),18.3%,62%,38.7%,29.7%,52.1%,68.3%,
CC[C@@]1(O)C(=O)OCc2c1cc1n(c2=O)Cc2cc3c(CN(C)C)c(O)ccc3nc2-1 [Topotecan] (30 nM),90.6%,95.9%,94.8%,82.3%,71.3%,56.8%,
Nc1cccc2c1CN(C1CCC(=O)NC1=O)C2=O (stereo not drawn) [Lenalidomide] (300 nM),97.7% and 101%,87.3% and 90.2%,107% and 103%,66.2% and 69.3%,92% and 96.1%,103% and 86.6%,
CCN(CC)CCNC(=O)c1c(C)[nH]c(/C=C2\C(=O)Nc3ccc(F)cc32)c1C [Sunitinib] (30 nM),93.3% and 81.3%,96.7% and 96.2%,111% and 91.1%,74.4% and 92.3%,99.5% and 101%,84.4% and 92.7%,
O=S(=O)(c1cccc2cnccc12)N1CCCNCC1 [Fasudil] (300 nM),106%,97.2%,107%,90.9%,83.7%,117%,
COc1cc(CCc2cc(NC(=O)c3ccc(N4CC(C)NC(C)C4)cc3)n[nH]2)cc(OC)c1 (stereo not drawn) [AZD4547] (30 nM),109%,89.7%,107%,103%,105%,92.7%,
COc1ccc(-c2cc3c(C)nc(N)nc3n([C@H]3CC[C@H](OCCO)CC3)c2=O)cn1 (300 nM),16.9%,49.9%,30.1%,18%,42.2%,65.8%,
O=C1c2c(O)ccc(O)c2C(=O)c2c(NCCNCCO)ccc(NCCNCCO)c21 [Mitoxantrone] (30 nM),98%,73.1%,42.9%,63.9%,56.1%,21.7%,
Cc1nc(Nc2ncc(C(=O)Nc3c(C)cccc3Cl)s2)cc(N2CCN(CCO)CC2)n1 [Dasatinib] (30 nM),102% and 101%,83.9% and 86%,59.8% and 68.3%,24.4% and 18.2%,110% and 90.6%,105% and 87.6%,
Cc1ccc(Nc2nccc(N(C)c3ccc4c(C)n(C)nc4c3)n2)cc1S(N)(=O)=O [Pazopanib] (300 nM),88.4%,96.1%,95.6%,64%,85.7%,102%,
O=C(Nc1c[nH]nc1-c1nc2ccc(CN3CCOCC3)cc2[nH]1)NC1CC1 [AT9283] (300 nM),58.1%,87.7%,59.1%,61.1%,61.9%,28.4%,
Cc1cccc(-c2nn3c(c2-c2ccnc4ccc(C(N)=O)cc24)CCC3)n1 (30 nM),93.3%,96.7%,103%,100%,89.8%,95.8%,
CNC(=O)c1cc(Oc2ccc(NC(=O)Nc3ccc(Cl)c(C(F)(F)F)c3)cc2)ccn1 [Sorafenib] (300 nM),,,,,,,normalised viability (MDA-MB-453 [7]): 96.8% and 108%; normalised viability (CAL-85-1 [8]): 83.4% and 99.7%; normalised viability (CAL-51 [9]): 109% and 102%; normalised viability (CAL-148 [10]): 93.4% and 99%; normalised viability (DU-4475 [11]): 104% and 99.8%
C[C@]12C=CC(=O)C=C1CC[C@@H]1[C@@H]2[C@@H](O)C[C@@]2(C)[C@H]1CC[C@]2(O)C(=O)CO [Prednisolone] (300 nM),79.4%,110%,104%,64.2%,105%,113%,
O=C(CCBr)N1CCN(C(=O)CCBr)CC1 [Pipobroman] (300 nM),113%,101%,106%,87.1%,107%,110%,
O=S(=O)(c1cccc2cnccc12)N1CCCNCC1 [Fasudil] (1000 nM),,,,,,,normalised viability (MDA-MB-453 [12]): 101%; normalised viability (CAL-85-1 [13]): 101%; normalised viability (CAL-51 [14]): 115%; normalised viability (HDQ-P1 [15]): 111%; normalised viability (CAL-148 [16]): 90.7%; normalised viability (DU-4475 [17]): 120%
CO[C@@H](C(=O)N1Cc2[nH]nc(NC(=O)c3ccc(N4CCN(C)CC4)cc3)c2C1)c1ccccc1 [Danusertib] (300 nM),60.2%,61.9%,60.3%,50.8%,54.6%,57%,
Nc1nc(=O)c2c([nH]1)NCC(CNc1ccc(C(=O)N[C@@H](CCC(=O)O)C(=O)O)cc1)N2C=O (mixture of isomers) [Folinic acid] (99 nM),,,,,,,normalised viability (MDA-MB-453 [12]): 103%; normalised viability (CAL-85-1 [13]): 87.2%; normalised viability (CAL-51 [14]): 93%; normalised viability (HDQ-P1 [15]): 134%; normalised viability (CAL-148 [16]): 97.8%; normalised viability (DU-4475 [17]): 104%
